The target in one experiment is Neprilysin (Homo sapiens, UniProt P08473). Nature of the experiment: The compound was evaluated in vitro for the inhibition of Neutral endopeptidase.
The target in experiment [1] is 72 kDa type IV collagenase (Homo sapiens, UniProt P08253). As to the kind of experiment: Inhibition of Matrix metalloprotease-2.
The target of experiment [2] is T1, Matrilysin (Homo sapiens) (UniProt P09237).
T1 sequence (whole entry): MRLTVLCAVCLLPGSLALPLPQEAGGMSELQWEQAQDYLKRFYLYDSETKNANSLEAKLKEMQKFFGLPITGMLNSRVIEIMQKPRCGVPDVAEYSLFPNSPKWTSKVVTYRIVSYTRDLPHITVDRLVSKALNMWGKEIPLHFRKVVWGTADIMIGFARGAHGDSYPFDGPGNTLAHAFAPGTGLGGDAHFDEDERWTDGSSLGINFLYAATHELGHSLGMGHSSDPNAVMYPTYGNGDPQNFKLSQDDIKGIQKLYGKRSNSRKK
Nature of the experiment: (§1) Inhibition of Matrix metalloprotease-7. To be noted: concentration not given here.

A further experiment concerns the target Stromelysin-1 (Homo sapiens, UniProt P08254). As to the kind of experiment: Inhibition of Matrix metalloprotease-3.
The target in experiment [3] is Angiotensin-converting enzyme (Homo sapiens, UniProt P12821). As to the kind of experiment: Compound was tested for its inhibitory activity against Angiotensin I converting enzyme.
Chain of Angiotensin-converting enzyme (P12821 whole entry): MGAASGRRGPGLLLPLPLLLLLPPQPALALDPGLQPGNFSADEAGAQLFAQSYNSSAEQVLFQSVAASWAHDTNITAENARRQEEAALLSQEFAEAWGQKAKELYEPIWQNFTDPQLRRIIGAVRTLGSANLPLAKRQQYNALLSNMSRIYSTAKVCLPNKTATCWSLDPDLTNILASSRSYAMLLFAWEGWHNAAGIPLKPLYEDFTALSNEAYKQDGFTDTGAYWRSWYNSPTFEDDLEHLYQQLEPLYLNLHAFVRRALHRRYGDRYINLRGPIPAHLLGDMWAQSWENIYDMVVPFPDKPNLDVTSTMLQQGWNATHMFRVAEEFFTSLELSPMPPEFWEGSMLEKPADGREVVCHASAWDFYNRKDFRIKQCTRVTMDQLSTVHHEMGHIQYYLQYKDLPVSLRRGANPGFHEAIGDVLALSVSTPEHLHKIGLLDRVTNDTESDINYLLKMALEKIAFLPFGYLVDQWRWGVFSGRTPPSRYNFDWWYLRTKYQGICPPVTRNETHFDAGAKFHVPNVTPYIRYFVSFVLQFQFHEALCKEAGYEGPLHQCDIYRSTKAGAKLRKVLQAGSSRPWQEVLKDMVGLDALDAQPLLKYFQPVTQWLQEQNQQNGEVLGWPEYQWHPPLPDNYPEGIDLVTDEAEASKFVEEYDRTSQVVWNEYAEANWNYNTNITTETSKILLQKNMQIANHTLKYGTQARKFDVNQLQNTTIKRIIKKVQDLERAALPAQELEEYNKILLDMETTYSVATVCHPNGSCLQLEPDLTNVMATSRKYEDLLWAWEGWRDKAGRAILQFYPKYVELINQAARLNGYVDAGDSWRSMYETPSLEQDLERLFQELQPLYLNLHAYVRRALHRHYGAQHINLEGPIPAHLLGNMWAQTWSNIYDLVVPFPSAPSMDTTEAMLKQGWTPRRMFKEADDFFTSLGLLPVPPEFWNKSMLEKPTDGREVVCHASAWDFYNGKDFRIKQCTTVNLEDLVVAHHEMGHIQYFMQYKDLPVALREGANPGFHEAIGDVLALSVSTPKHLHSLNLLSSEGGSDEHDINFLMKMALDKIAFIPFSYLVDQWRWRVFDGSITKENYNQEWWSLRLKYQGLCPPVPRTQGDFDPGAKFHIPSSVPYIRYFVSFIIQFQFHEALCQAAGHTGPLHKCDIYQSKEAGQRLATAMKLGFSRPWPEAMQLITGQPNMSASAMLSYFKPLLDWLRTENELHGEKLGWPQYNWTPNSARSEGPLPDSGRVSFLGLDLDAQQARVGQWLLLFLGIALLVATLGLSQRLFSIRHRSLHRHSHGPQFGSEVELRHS
For the next experiment, the target named is T2, Interstitial collagenase (Homo sapiens, UniProt P03956).
T2 sequence (P03956 whole entry): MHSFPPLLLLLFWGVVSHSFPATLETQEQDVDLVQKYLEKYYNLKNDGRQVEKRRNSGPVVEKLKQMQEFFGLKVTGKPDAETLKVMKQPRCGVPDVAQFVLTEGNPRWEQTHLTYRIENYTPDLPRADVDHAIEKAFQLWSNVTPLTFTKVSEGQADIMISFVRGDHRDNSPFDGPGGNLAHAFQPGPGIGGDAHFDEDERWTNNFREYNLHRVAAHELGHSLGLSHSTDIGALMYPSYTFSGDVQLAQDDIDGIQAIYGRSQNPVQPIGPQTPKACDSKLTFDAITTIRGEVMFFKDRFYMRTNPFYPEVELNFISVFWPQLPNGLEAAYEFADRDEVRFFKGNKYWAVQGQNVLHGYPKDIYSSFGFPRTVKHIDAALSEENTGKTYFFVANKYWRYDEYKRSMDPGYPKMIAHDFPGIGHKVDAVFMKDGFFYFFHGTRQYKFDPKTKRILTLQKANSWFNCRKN
As to the kind of experiment: Inhibition of human Matrix metalloprotease-1.

Another experiment has as its target T3, Matrilysin (Homo sapiens, UniProt P09237).
T3 sequence (P09237 whole entry): T1 sequence (whole entry)
The description is as §1.

Results on three compounds are retold here after ChEMBL document CHEMBL1133973, “Asymmetric synthesis of BB-3497--a potent peptide deformylase inhibitor” (Bioorg Med Chem Lett, 2001).

Chain of Stromelysin-1 (P08254 whole entry): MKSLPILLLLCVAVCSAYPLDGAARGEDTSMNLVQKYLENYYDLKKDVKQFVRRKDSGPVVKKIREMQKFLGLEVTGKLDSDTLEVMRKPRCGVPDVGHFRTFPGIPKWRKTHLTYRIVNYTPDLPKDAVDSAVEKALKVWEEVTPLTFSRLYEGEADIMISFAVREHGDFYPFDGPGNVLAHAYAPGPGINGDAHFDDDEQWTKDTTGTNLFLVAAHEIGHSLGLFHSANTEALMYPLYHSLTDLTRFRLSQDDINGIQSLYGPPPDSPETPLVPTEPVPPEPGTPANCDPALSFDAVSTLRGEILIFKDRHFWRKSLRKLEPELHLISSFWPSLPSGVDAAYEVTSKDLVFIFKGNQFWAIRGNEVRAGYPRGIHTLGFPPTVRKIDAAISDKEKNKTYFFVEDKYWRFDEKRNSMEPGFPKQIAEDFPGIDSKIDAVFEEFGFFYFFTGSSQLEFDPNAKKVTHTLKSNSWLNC
Chain of 72 kDa type IV collagenase (P08253 whole entry): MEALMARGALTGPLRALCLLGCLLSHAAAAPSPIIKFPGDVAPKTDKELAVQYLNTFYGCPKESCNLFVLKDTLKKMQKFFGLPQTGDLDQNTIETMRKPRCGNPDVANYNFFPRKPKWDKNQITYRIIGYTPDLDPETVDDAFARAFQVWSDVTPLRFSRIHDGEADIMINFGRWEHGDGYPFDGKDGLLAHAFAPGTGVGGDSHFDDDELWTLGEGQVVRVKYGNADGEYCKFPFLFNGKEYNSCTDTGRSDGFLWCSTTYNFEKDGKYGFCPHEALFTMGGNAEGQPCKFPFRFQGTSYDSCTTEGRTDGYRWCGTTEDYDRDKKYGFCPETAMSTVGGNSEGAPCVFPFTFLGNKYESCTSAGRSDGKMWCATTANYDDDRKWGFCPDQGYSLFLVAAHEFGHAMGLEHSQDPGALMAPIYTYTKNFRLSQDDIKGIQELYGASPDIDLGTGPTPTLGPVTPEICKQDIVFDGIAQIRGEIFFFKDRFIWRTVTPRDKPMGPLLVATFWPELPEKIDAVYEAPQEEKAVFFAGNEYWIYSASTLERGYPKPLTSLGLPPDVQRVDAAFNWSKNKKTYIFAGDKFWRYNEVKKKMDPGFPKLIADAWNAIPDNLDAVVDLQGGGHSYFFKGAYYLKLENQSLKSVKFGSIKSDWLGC
Chain of Neprilysin (P08473 whole entry): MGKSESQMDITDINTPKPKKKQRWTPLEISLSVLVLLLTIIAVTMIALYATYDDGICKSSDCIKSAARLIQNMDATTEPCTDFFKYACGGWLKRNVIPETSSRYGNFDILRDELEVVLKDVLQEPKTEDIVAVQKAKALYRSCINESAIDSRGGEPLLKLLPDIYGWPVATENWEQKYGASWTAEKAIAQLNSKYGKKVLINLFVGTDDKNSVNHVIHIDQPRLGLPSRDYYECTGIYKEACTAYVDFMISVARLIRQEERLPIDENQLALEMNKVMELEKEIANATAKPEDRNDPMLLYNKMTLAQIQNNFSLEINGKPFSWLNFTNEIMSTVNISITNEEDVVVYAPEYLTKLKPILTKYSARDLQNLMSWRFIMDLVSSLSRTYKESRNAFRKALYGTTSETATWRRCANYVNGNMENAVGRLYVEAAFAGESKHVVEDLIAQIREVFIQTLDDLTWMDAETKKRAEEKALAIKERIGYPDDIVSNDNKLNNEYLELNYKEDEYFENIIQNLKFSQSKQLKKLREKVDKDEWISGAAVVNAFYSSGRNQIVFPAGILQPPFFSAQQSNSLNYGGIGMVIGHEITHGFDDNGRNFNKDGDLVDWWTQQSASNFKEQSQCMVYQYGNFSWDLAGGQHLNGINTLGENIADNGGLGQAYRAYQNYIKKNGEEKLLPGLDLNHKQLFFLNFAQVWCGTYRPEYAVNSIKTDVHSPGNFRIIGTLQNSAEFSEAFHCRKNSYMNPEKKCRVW

The term IC50 denotes the point on the concentration scale where inhibition reaches its midpoint. The low end stands for higher potency, the high end for lower potency. In general, inhibition refers to the relative decrease from the control value, in per cent. Low values mean little suppression, high ones strong suppression. Take `CCCCC[C@H](CC(=O)NO)C(=O)N[C@H](C(=O)N1CCC[C@H]1CO)C(C)C` [ACTINONIN]: the IC50 on Neprilysin is 6.7 µM; in experiment [1] it was 3 µM; against Stromelysin-1 it was 6 µM; in experiment [3], above 100 µM; at Interstitial collagenase, 1.1 µM. The same compound had an inhibition in experiment [2] of 60%.

As to `CCCC[C@H](CN(O)C=O)C(=O)N[C@H](C(=O)N(C)C)C(C)(C)C`, the half-inhibitory concentration (IC50) against Neprilysin is 50 µM; in experiment [1], 15 µM; against Stromelysin-1 it was above 100 µM; in experiment [3] it was above 100 µM; on Matrilysin, above 100 µM; against Interstitial collagenase, 2 µM.

In the case of `CCCCC(CN(O)C=O)C(=O)N[C@H](C(=O)N(C)C)C(C)(C)C` (stereo partly specified), the IC50 (in experiment [1]; at Stromelysin-1; against Matrilysin; at Interstitial collagenase) was above 100 µM throughout.
